Data as given in patent publication EP0432309B1, “Sugar derivatives, process for their preparation and their use” (Laevosan-Gesellschaft m.b.H., priority 1989, dated 1991).

Columns and labels:
[1] = tested on: humanen Ovarialkarzinom-Zellkultur (HOC-7); experiment: human tumour cloning assay (HTCA): clonal growth of single malignant cells in semisolid media, colonies counted after 21 days; type: cell-based; settings: for Kolonienüberleben: HOC-7, 21 days; for antiproliferative/cytotoxische Wirkung: HOC-7, HTCA, result in words
Text: Zur Prüfung auf ihre antiproliferativen/cytotoxischen Eigenschaften wurden die erfindungsgemäßen Verbindungen der Formel I und II mittels einer humanen Ovarialkarzinom-Zellkultur (HOC-7) getestet, wobei als Testsystem der sogenannte human tumour cloning assay (HTCA) herangezogen wurde, ein System, in dem das klonale Wachstum maligner Einzelzellen in semisoliden Medien selektiv erfaßt wird (vgl. S. Hamburger, Science 197, (1977), 461). Dabei zeigten die Verbindungen eine überraschend hohe antiproliferative/cytotoxische Wirkung.
Das in Beispiel 1 hergestellte 3-DGP sowie DGP-DA von Beispiel 2 wurden hinsichtlich ihrer antiproliferativen/cytotoxischen Eigenschaften mittels einer humanen Ovarialkarzinom-Zellkultur (HOC-7) getestet, wobei als Testsystem der sogenannte human tumour cloning assay (HTCA) herangezogen wurde, ein System, in dem das klonale Wachstum maligner Einzelzellen in semisoliden Medien selektiv erfaßt wird (vgl. S. Hamburger, Science 197, (1977), 461).
Je eine wäßrige Lösung von 3-DGP und DGP-DA wurde in folgender Verdünnungsreihe getestet.
wobei sowohl ein […] (in Form von HgCl₂) als auch ein Ansatz mit Lösungsmittel (Aqua bidest) mitgeführt wurde.
Die Kulturen wurden bei 37°C, 5 % CO₂, 100 % Luftfeuchtigkeit 21 Tage inkubiert, danach wurden die Kultursysteme aufgearbeitet, wobei die gewachsenen Kolonien (Klone) unter dem Mikroskop ausgezählt wurden.
Als Wirksamkeit der getesteten Lösung wurde ein Kolonienüberleben < 50 % der Kontrolle definiert.

[2] = tested on: Escherichia coli ATCC 8739; experiment: preservation test according to DAB 9, VIII, N1 (colony counts over time); type: cell-based; settings: E. coli; for KBE nach 10 Tagen: 10 days; for KBE nach 3 Tagen: 3 days; for KBE nach 1 Tag: 1 day
Text: (§1) Die erfindungsgemäßen Verbindungen weisen eine bakterizide Wirksamkeit auf, wie die nachstehend angegebenen Versuchsergebnisse zeigen: Präparat: Di-deoxy-glyceropentulose-Dianhydrid 0,3 %, 1 % und 3 % Die Untersuchung wurde mit folgenden Keimen durchgeführt: Escherichia coli ATCC 8739 Pseudomonas aeruginosa ATCC 9027 Staphylococcus aureus ATCC 6538 Candida albicans ATCC 10231 Aspergillus niger ATCC 16404 Tabelle 6
(§2) Analog Beispiel 9 wurde die bakterizide Wirksamkeit von DGP untersucht. Präparat: DGP-wässriger Sirup 0,3 %, 1 % und 3 %, Charge: 91621 Die Untersuchung wurde mit folgenden Keimen durchgeführt: Escherichia coli ATCC 8739 Pseudomonas aeruginosa ATCC 9027 Staphyloccus aureus ATCC 6538 Candida albicans ATCC 10231 Aspergillus niger ATCC 16404 Tabelle 7

[3] = tested on: Pseudomonas aeruginosa ATCC 9027; experiment: as above; type: cell-based; settings: Pseud. aerug.; for KBE nach 10 Tagen: 10 days; for KBE nach 3 Tagen: 3 days; for KBE nach 1 Tag: 1 day
Text: as §1, §2

[4] = tested on: Staphylococcus aureus ATCC 6538; experiment: as above; type: cell-based; settings: Staph. aureus; for KBE nach 10 Tagen: 10 days; for KBE nach 3 Tagen: 3 days; for KBE nach 1 Tag: 1 day
Text: as §1, §2

[5] = stability / hydrolysis in aqueous solution; type: physicochemical; settings: result in words
Description: Aus den geeigneten Fraktionen kann hochgereinigte 3-DGP als farbloser, nicht kristallisierender Sirup erhalten werden. Da die Substanz unter wasserfreien oder wasserarmen Bedingungen zur Bildung von dimeren Anhydriden neigt, ist es zweckmäßig, sie als etwa 50 %ige wäßrige Lösung herzustellen und aufzubewahren. […] Erhöhung der Temperatur und Absenken des pH-Wertes beschleunigen diese Zersetzung. Für die Aufbewahrung ist es daher zweckmäßig, Temperaturen von ≦ 4°C und pH-Werte zwischen 5 und 6 einzuhalten. In solchen Lösungen liegt offenbar ein Gemisch der alpha- und beta-Furanosen und des offenkettigen Ketozuckers vor.
Die Glycoside bilden sich außerordentlich leicht aus den Lösungen von 3-DGP in den entsprechenden Alkoholen in Gegenwart sehr geringer Mengen an Säure oder Ionenaustauscher in der H⁺-Form als Katalysator bereits nach kurzer Behandlung bei Raumtemperatur. Ebenso leicht tritt in wäßriger Lösung Hydrolyse der Glycoside ein, so daß unter physiologischen Bedingungen eine Äquivalenz mit freier 3-DGP erwartet werden kann.
Das Dianhydrid der Formel II (R = H) bildet sich leicht bei Behandlung von mäßig sauren 3-DGP-Lösungen mit wasserentziehenden Mitteln, wie z.B. wasserfreiem Natriumsulfat oder Calciumsulfat, oder beim Eindampfen von wäßrigen oder organischen Lösungen von 3-DGP und Stehenlassen des wasserfreien Produktes.

[6] = result in words

O=C(CO)C[C@H](O)CO [DGP, 3-Deoxy-D-Glyceropentulose]
Kolonienüberleben ([1]; Testkonzentration C-F (5.000-250 µg/ml im Petrischälchen), % of control): 0 % = Wirksamkeit
Kolonienüberleben ([1]; Testkonzentration F1 (200 µg/ml)): 0,08 % = Wirksamkeit
Kolonienüberleben ([1]; Testkonzentration F2 (152 µg/ml)): 10 % = Wirksamkeit
Kolonienüberleben ([1]; Testkonzentration F3 (100 µg/ml)): 44 % = intermediäre Wirksamkeit
Kolonienüberleben ([1]; Testkonzentration G-J (50-2,5 µg/ml)): 65 - 84 % = keine Wirksamkeit
KBE nach 10 Tagen ([2]; Konz 3 %): 0 KBE
KBE nach 10 Tagen ([3]; Konz 0,3 %): 0 KBE
KBE nach 3 Tagen ([3]; Konz 1 %): 0 KBE
KBE nach 10 Tagen ([3]; Konz 1 %): 0 KBE
KBE nach 1 Tag ([3]; Konz 3 %): 15 KBE
KBE nach 3 Tagen ([3]; Konz 3 %): 0 KBE
KBE nach 10 Tagen ([3]; Konz 3 %): 0 KBE
KBE nach 10 Tagen ([4]; Konz 0,3 %): 0 KBE
KBE nach 10 Tagen ([4]; Konz 1 %): 0 KBE
KBE nach 3 Tagen ([4]; Konz 3 %): 0 KBE
KBE nach 10 Tagen ([4]; Konz 3 %): 0 KBE
Stabilität der wäßrigen Lösung [5]: relativ instabil

OC1COC2(COC3(CO2)CC(O)CO3)C1 [DGP-DA, Di-(3-deoxy-D-glyceropentulose)-dianhydrid]
Kolonienüberleben ([1]; Testkonzentration C (5.000 µg/ml)): 30 % = Wirksamkeit
Kolonienüberleben ([1]; Testkonzentration D (2.500 µg/ml)): 50 % = intermediäre Wirksamkeit
Kolonienüberleben ([1]; Testkonzentration E (500 µg/ml)): 57 % = intermediäre Wirksamkeit
Kolonienüberleben ([1]; Testkonzentration F-J (250-2,5 µg/ml)): 61 - 89 % = keine Wirksamkeit
KBE nach 3 Tagen ([2]; Konz 0,3 %): 0 KBE
KBE nach 10 Tagen ([2]; Konz 0,3 %): 0 KBE
KBE nach 1 Tag ([2]; Konz 1 %): 0 KBE
KBE nach 3 Tagen ([2]; Konz 1 %): 0 KBE
KBE nach 10 Tagen ([2]; Konz 1 %): 0 KBE
KBE nach 1 Tag ([2]; Konz 3 %): 0 KBE
KBE nach 3 Tagen ([2]; Konz 3 %): 0 KBE
KBE nach 10 Tagen ([2]; Konz 3 %): 0 KBE
KBE nach 1 Tag ([3]; Konz 3 %): 0 KBE
KBE nach 3 Tagen ([3]; Konz 3 %): 0 KBE
KBE nach 10 Tagen ([3]; Konz 3 %): 0 KBE
KBE nach 1 Tag ([4]; Konz 0,3 %): 0 KBE
KBE nach 3 Tagen ([4]; Konz 0,3 %): 0 KBE
KBE nach 10 Tagen ([4]; Konz 0,3 %): 0 KBE
KBE nach 1 Tag ([4]; Konz 1 %): 0 KBE
KBE nach 3 Tagen ([4]; Konz 1 %): 0 KBE
KBE nach 10 Tagen ([4]; Konz 1 %): 0 KBE
KBE nach 1 Tag ([4]; Konz 3 %): 0 KBE
KBE nach 3 Tagen ([4]; Konz 3 %): 0 KBE
KBE nach 10 Tagen ([4]; Konz 3 %): 0 KBE
Stabilität der wäßrigen Lösung [5]: leicht zum Monomeren spaltbar

CCCCOC1(COC(C)=O)C[C@H](OC(C)=O)CO1 (stereo partly drawn) [Diacyl-n-butyl-glycosid, n-Butyl-1,4-Diacetyl-3-Deoxy-D-Glyceropentulosid]
antiproliferative/cytotoxische Wirkung [1]: eindeutige antiproliferative/cytotoxische Wirkung

COC1(CO)C[C@H](O)CO1 (stereo partly drawn) [Methylglycosid, Methyl-3-Deoxy-D-Glyceropentulosid]
antiproliferative/cytotoxische Wirkung [1]: eindeutige antiproliferative/cytotoxische Wirkung

[Cl][Hg][Cl] [Negativkontrolle, HgCl₂, reference compound]
Kolonienüberleben ([1]; Negativkontrolle VI (HgCl₂), concentration not given): 0%

CCCCOC1(CO)C[C@H](O)CO1 (stereo partly drawn) [n-Butylglycosid, n-Butyl-3-Deoxy-D-Glyceropentulosid]
antiproliferative/cytotoxische Wirkung [1]: eindeutige antiproliferative/cytotoxische Wirkung
Löslichkeit [6]: gut löslich in Wasser, Alkoholen und niederen Ketonen
